# Source: PubChem BioAssay (NCI)
# Values joined by “and” are separate entries in the source; they are usually repeats but may differ in a detail not shown here. Equal entries are not always repeated.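 Assay format: 96-well plates, 48-hour exposure. GI50 = concentration required for 50% inhibition of growth. TGI is the concentration that stops growth completely.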
# What was measured:
# Assay in all cases: DTP human tumour cell line panel, 48 h
# [1] = system: CCRF-CEM leukemia
# [2] = system: HCC-2998 colon
# [3] = system: HL-60(TB) leukemia
# [4] = system: M14 melanoma
# [5] = system: NCI-H226 lung
# [6] = system: NCI-H522 lung
# [7] = system: SF-295 CNS
# [8] = system: SK-OV-3 ovarian
# [9] = system: TK-10 renal
# [10] = system: UO-31 renal
SMILES,GI50 [1],TGI [1],GI50 [2],TGI [2] [µM],GI50 [3],TGI [3],GI50 [4],TGI [4] [µM],GI50 [5],TGI [5],GI50 [6],TGI [6],GI50 [7] [µM],TGI [7],GI50 [8],TGI [8] [µM],GI50 [9] [µM],TGI [9] [µM],GI50 [10],TGI [10]
CN(C)c1ccc(/C=C/c2cc[n+](C)c(/C=C/c3ccc(N(C)C)cc3)c2)cc1,0.248 µM,3.78 µM,0.381 µM,1.97,0.19 µM,0.873 µM,0.376 µM,1.65,0.271 µM,5.43 µM,0.267 µM,1.72 µM,0.27,1.32 µM,0.27 µM,1.39,0.374,2.86,1.81 µM,11.9 µM
O=Cc1c(O)c(C(=O)Nc2ccc3[nH]c(=O)[nH]c3c2)cc2ccccc12,,> 100 µM,,> 100,,> 100 µM,,> 100,,> 100 µM,,> 100 µM,,> 100 µM,,> 100,,> 100,,> 100 µM
CC(=O)OCC1OC(n2c(-c3ccc(C)cc3)cc(-c3ccccc3)c(C#N)c2=O)C(OC(C)=O)C(OC(C)=O)C1OC(C)=O (stereo not drawn),,> 100 µM,,> 100,,> 100 µM,,> 100,,> 100 µM,,> 100 µM,,,,> 100,,> 100,,> 100 µM
CN(C)CCCNC(=O)c1cc(NC(=O)c2cc(NC(=O)CCNS(=O)(=O)c3ccc4c(c3)C(=O)c3ccccc3C4=O)cn2C)cn1C,> 100 µM,> 100 µM,> 100 µM,> 100,> 100 µM,> 100 µM,,,> 100 µM,> 100 µM,> 100 µM,> 100 µM,> 100,> 100 µM,> 100 µM,> 100,74.2,> 100,> 100 µM,> 100 µM
COc1cc(C2CC(c3ccc(Nc4ccnc5cc(Cl)ccc45)cc3)=NN2c2ccc(Cl)cc2)cc(OC)c1OC (stereo not drawn),2.5 µM,> 100 µM,2.09 µM,8.03,4.68 µM,> 100 µM,2.01 µM,9.61,4.77 µM,> 100 µM,1.85 µM,50.2 µM,2.02,8.32 µM,3.26 µM,> 100,5.05,> 100,1.58 µM,> 100 µM
N#C/C(=C\c1ccc(Br)cc1)n1nnc2ccc(F)cc21,0.395 µM,> 100 µM,1.43 µM,2.89,0.702 µM,5.23 µM,0.385 µM,1.69,1.67 µM,4.03 µM,0.227 µM,0.858 µM,2.11,5.07 µM,4.85 µM,> 100,2.26,5.61,1.02 µM,2.2 µM
O=C(/C=C/c1ccc(C(F)(F)F)cc1)c1ccc(Nc2nc(NCCO)nc(Nc3ccc(Cl)cc3)n2)cc1,2.75 µM,8.24 µM,2.93 µM,8.17,12.2 µM,51.8 µM,3.5 µM,13.4,4.29 µM,18.7 µM,7.82 µM,23.6 µM,3.98,14.7 µM,13.4 µM,34.3,,,1.75 µM,4.39 µM
N#CC1CC2(CCN1C(=O)c1ccccc1)OCCO2 (stereo not drawn),,> 100 µM,,> 100,,> 100 µM,,> 100,,> 100 µM,,78.2 µM,,> 100 µM,,> 100,,> 100,,> 100 µM
CSc1nc(SC)c2c(CO)c(Br)n(Cc3ccccc3)c2n1,,> 100 µM,,> 100,,> 100 µM,,> 100,,39.3 µM,,68.8 µM,,40.9 µM,,37.6,,79.4,,44.4 µM
C#CCOc1cccc(Nc2ncnc3cc(NC(=O)CCl)ccc23)c1,1.55 µM,8.85 µM,8.83 µM,22.6,3.29 µM,12.5 µM,5.11 µM,20.4,10.7 µM,32.7 µM,1.46 µM,3.34 µM,3.52,15.2 µM,4.36 µM,17.2,5.22,19.3,3.31 µM,15.7 µM
NC(N)=NS(=O)(=O)c1ccc(NCCc2c3ccccc3nc3ccccc23)cc1,,> 100 µM,,> 100,,82.5 µM,,> 100,,> 100 µM,,> 100 µM,,> 100 µM,,> 100,,> 100,,> 100 µM
CCOC(=O)c1c2c(n3ccccc13)C(=O)c1ncccc1C2=O,3.06 µM,> 100 µM,0.877 µM,14.3,0.0784 µM,1.09 µM,0.0354 µM,2.94,0.0544 µM,3.5 µM,0.419 µM,3.72 µM,1.31,11.3 µM,0.0683 µM,22.9,0.354,20.2,0.0338 µM,3.79 µM
Cn1cc(-c2ccc(-c3ccc(C4=NC5(CC5)C(=O)N4C[C@@H]4CCN(C(=O)C5CC5)C4)cc3)cc2)cn1,6.01 µM,42.5 µM,15.2 µM,29.9,0.0615 µM,25.9 µM,20.2 µM,> 100,16 µM,51.2 µM,12.3 µM,40.6 µM,10.8,29.2 µM,29.9 µM,> 100,24,81.2,1.47 µM,> 100 µM
O=C1C(Cl)=C(NCc2ccco2)C(=O)c2ccccc21,9.88 µM,> 100 µM,21.7 µM,50.8,7.63 µM,> 76.9 µM,4.31 µM,12.1,18.8 µM,> 60.7 µM,7.15 µM,> 55.2 µM,8.24,41.6 µM,40.3 µM,> 100,22.1,> 100,38.5 µM,> 100 µM
C=C(c1ccccc1)[C@@]1(O)CC[C@@H]1N(CC#N)Cc1ccccc1,,62.5 µM,,44.3,,> 62.1 µM,,32.6,,> 100 µM,,47.8 µM,,> 100 µM,,> 100,,35.5,,67.4 µM
COC(=O)[C@@H](C)C[C@H](Cc1ccccc1)NC(=O)c1csc([C@@H](C[C@H](C(C)C)N(C)C(=O)[C@@H](NC(=O)[C@H]2CCCCN2C)C2CC2)OC(C)=O)n1,0.000621 µM and 0.00165 µM,> 16.5 µM,0.000338 µM and 0.00165 µM,> 16.5,0.000235 µM and < 0.00165 µM,0.000839 µM and < 0.00165 µM,0.000455 µM and < 0.00165 µM,< 0.00165,0.009 µM and 0.00417 µM,1.18 µM,0.000247 µM and < 0.00165 µM,0.000988 µM and < 0.00165 µM,0.000345,0.00369 µM,0.000604 µM and 0.00165 µM,> 16.5,,,0.00516 µM and 0.00284 µM,> 16.5 µM

SMILES,GI50 [1],TGI [1],GI50 [2],TGI [2] [µM],GI50 [3],TGI [3],GI50 [4],TGI [4] [µM],GI50 [5],TGI [5],GI50 [6],TGI [6],GI50 [7] [µM],TGI [7],GI50 [8],TGI [8] [µM],GI50 [9] [µM],TGI [9] [µM],GI50 [10],TGI [10]
NCCCNCCCCNC(=O)C(O)NC(=O)CCCCCCN=C(N)N (stereo not drawn),1320 µM,750 µM and > 3570 µM,2720 µM,> 4260,2500 µM,> 4090 µM,2450 µM,> 3810,2430 µM,750 µM and > 5000 µM,1350 µM,636 µM and 2860 µM,1400,608 µM and > 4710 µM,> 5000 µM,> 5000,> 4030,> 5000,2980 µM,619 µM and > 5000 µM
Cc1cc(C)c(-n2c(-c3ccc(Br)cc3)cs/c2=N\N=C2C=C(C(C)(C)C)C(=O)C(C(C)(C)C)=C2)c(C)c1,,> 100 µM,,> 100,,> 100 µM,,> 100,,> 100 µM,,> 100 µM,,> 100 µM,,> 100,,> 100,,> 100 µM
Cc1cc(Cl)ccc1NC(=O)CC1SC(=Nc2ccccc2Cl)NC1=O (stereo not drawn),,> 100 µM,,> 100,,40.4 µM,,> 100,,> 100 µM,,80.4 µM,,> 100 µM,,> 100,,> 100,,> 100 µM
Cc1cnc(C(=O)NNc2nc3sc4c(c3c(=O)n2C)C(C)CCC4)cn1 (stereo not drawn),0.245 µM,,0.529 µM,6.22,0.269 µM,0.765 µM,0.284 µM,2.43,0.404 µM,3.03 µM,0.328 µM,4.62 µM,0.384,3.91 µM,0.628 µM,5.01,0.608,11.9,0.322 µM,1.86 µM
CC(C)CC(NC(=O)OC(C)(C)C)C(=O)Nc1ccc(Nc2nc(F)nc(-c3c4ccccc4cn3C)n2)cc1 (stereo not drawn),,> 100 µM,,40.2,,33 µM,,> 100,,> 100 µM,,> 100 µM,,> 100 µM,,> 100,,> 100,,> 100 µM
O=C1C(=Cc2c(O)cc(O)cc2O)C(=O)c2ccccc21,,> 73.1 µM,,> 56.4,,43.5 µM,,> 57.2,,> 63 µM,,> 60.3 µM,,> 57 µM,,> 100,,> 67.5,,> 100 µM
CC12CCC(Br)C(C)(C)C1CC=C1C(=O)OCC1O2 (stereo not drawn),,,,24.9,,> 100 µM,,> 51.9,,23.2 µM,,11.7 µM,,37.6 µM,,29.9,,28.5,,> 42.6 µM
CCCCCCCc1cc2c3c(nc4ccccc42)C(=O)c2cccnc2-c3n1,1.62 µM,7.66 µM,2.93 µM,7.56,1.42 µM,,2.5 µM,6.9,6.82 µM,16.3 µM,1.14 µM,3.07 µM,3.45,7.32 µM,15.3 µM,28.6,2.4,4.41,3.85 µM,11 µM
CC(C)(c1ccccc1)c1ccc(OC#N)cc1,,> 76.3 µM,,> 100,,> 77.9 µM,,> 100,,> 100 µM,,24.4 µM,,> 100 µM,,> 100,,> 100,,98 µM
COc1cc2c(cc1OC)C13CCN4CC5CCOC6CC(=O)N2C1C6C5CC43 (stereo not drawn),,> 100 µM,,> 100,,> 100 µM,,> 100,,> 100 µM,,> 100 µM,,> 100 µM,,> 100,,> 100,,> 100 µM
Cn1cc2ccccc2c1-c1nc(F)nc(OCC(=O)[C@H]2CCC3[C@@H]4CCC5=CC(=O)CC[C@]5(C)C4[C@@H](O)C[C@@]32C)n1 (stereo partly drawn),,27.5 µM,,48.4,,25.3 µM,,44.7,,36.5 µM,,31.2 µM,,44.4 µM,,37.3,,47.9,,37.8 µM
COc1ccc(-c2ccc(-c3ccc(C(=N)N)o3)o2)cc1,1.84 µM,6.75 µM,1.58 µM,3.23,1.23 µM,3.16 µM,1.47 µM,3.87,22 µM,42.8 µM,1.09 µM,3.48 µM,1.68,3.51 µM,5.63 µM,18.7,7.97,21,1.72 µM,3.79 µM
O=C1C(=O)c2cccnc2-c2ncccc21,0.0797 µM,0.618 µM,1.32 µM,2.92,0.18 µM,0.443 µM,0.159 µM,0.441,0.696 µM,2.05 µM,0.126 µM,0.332 µM,0.295,0.946 µM,1.16 µM,2.98,1.24,2.6,0.159 µM,0.486 µM
COc1ccc(C2ON(c3cccc(C)n3)CC=C2C)cc1 (stereo not drawn),,> 100 µM,,> 100,,43.7 µM,,> 100,,> 100 µM,,54.8 µM,,> 100 µM,,> 100,,,,> 100 µM
Cn1cc(C(=O)C[n+]2ccccc2)c2ccccc21,,> 100 µM,,> 100,,> 100 µM,,> 100,,59.1 µM,,> 100 µM,,> 100 µM,,,,> 100,,> 100 µM
